Experimental data reported in patent US9296741B2, “Bromodomain inhibitors” (priority 2012, dated 2016).

Assays:
[1] = biological target: human BRD4 first bromodomain (BDI_K57-E168) (Homo sapiens (Human), UniProt O60885); experiment: TR-FRET bromodomain binding assay, BRD4 first bromodomain
[2] = system: breast cancer cell line MX-1; experiment: MX-1 cell line proliferation assay; format: cell-based, human; conditions: Homo sapiens, MX1, 72 h; MX-1 cells, 3-day proliferation, Cell Titer Glo; read-out: Cellular proliferation: EC50
[3] = Mouse liver microsome stability assay; format: in vitro ADME; conditions: male, CD1, mouse, microsomes, pH 7.4
[4] = Rat liver microsome stability assay; format: in vitro ADME; conditions: rat liver microsomes (male Sprague-Dawley), 0.5 μM test compound, pH 7.4, 37° C.; for half-life at 0.5 μM: 0.25 mg/mL microsomal protein, read-out: Stability in rat liver microsomes (t1/2 in minutes); for Stability in rat liver microsomes (t1/2 in minutes): […] microsomal protein
[5] = biological target: human BRD4 second bromodomain (BDII_E352-M457) (Homo sapiens (Human), UniProt O60885); experiment: TR-FRET bromodomain binding assay, BRD4 second bromodomain
[6] = Human liver microsome stability assay; format: in vitro ADME; conditions: both sexes, human, microsomes, pH 7.4

Structure (SMILES)	Ki [1]	EC50 [2]	half-life at 0.5 μM [3]	half-life at 0.5 μM [4]	Ki [5]	half-life at 0.5 μM [6]	Stability in rat liver microsomes (t1/2 in minutes) [4]
Cn1cc(-c2cc(C(=O)NC3CCCC3)ccc2Oc2ccccc2)c2cc[nH]c2c1=O [Example 15, N-cyclopentyl-3-(6-methyl-7-oxo-6,7-dihydro-1H-pyrrolo[2,3-c]pyridin-4-yl)-4-phenoxybenzamide]	4.2 nM	140 nM	7 min	4 min	7.5 nM	10 min	–
Cn1cc(-c2cc(C(=O)NCC(F)F)ccc2Oc2ccccc2)c2cc[nH]c2c1=O [Example 16, N-(2,2-difluoroethyl)-3-(6-methyl-7-oxo-6,7-dihydro-1H-pyrrolo[2,3-c]pyridin-4-yl)-4-phenoxybenzamide]	4.3 nM	94.6 nM	22 min	4 min	5.3 nM	> 120 min	–
Cn1cc(-c2cc(C(=O)NC3CCS(=O)(=O)C3)ccc2Oc2ccccc2)c2cc[nH]c2c1=O (stereo not drawn) [Example 18, N-(1,1-dioxidotetrahydrothiophen-3-yl)-3-(6-methyl-7-oxo-6,7-dihydro-1H-pyrrolo[2,3-c]pyridin-4-yl)-4-phenoxybenzamide]	10.2 nM	209 nM	15 min	11 min	10.3 nM	31 min	–
Cn1cc(-c2cc(C(N)=O)ccc2Oc2ccccc2)c2cc[nH]c2c1=O [Example 19, 3-(6-methyl-7-oxo-6,7-dihydro-1H-pyrrolo[2,3-c]pyridin-4-yl)-4-phenoxybenzamide]	7.4 nM	123 nM	33 min	13 min	4.2 nM	92 min	–
Cn1cc(-c2cc(CO)ccc2Oc2ccccc2)c2cc[nH]c2c1=O [Example 20, 4-[5-(hydroxymethyl)-2-phenoxyphenyl]-6-methyl-1,6-dihydro-7H-pyrrolo[2,3-c]pyridin-7-one]	10.9 nM	190 nM	7 min	–	0.68 nM	18 min	1 min
CCS(=O)(=O)Nc1ccc(Oc2ccccc2)c(-c2cn(C)c(=O)c3[nH]ccc23)c1 [Example 21, N-[3-(6-methyl-7-oxo-6,7-dihydro-1H-pyrrolo[2,3-c]pyridin-4-yl)-4-phenoxyphenyl]ethanesulfonamide]	0.39 nM	13.9 nM	22 min	3 min	0.25 nM	> 120 min	–
CN(C)S(=O)(=O)Nc1ccc(Oc2ccccc2)c(-c2cn(C)c(=O)c3[nH]ccc23)c1 [Example 22, N,N-dimethyl-N′-[3-(6-methyl-7-oxo-6,7-dihydro-1H-pyrrolo[2,3-c]pyridin-4-yl)-4-phenoxyphenyl]sulfuric diamide]	2.2 nM	65.2 nM	10.7 min	3 min	1 nM	32 min	–
Cn1cc(-c2cc(NS(C)(=O)=O)cnc2Oc2ccccc2)c2cc[nH]c2c1=O [Example 23, N-[5-(6-methyl-7-oxo-6,7-dihydro-1H-pyrrolo[2,3-c]pyridin-4-yl)-6-phenoxypyridin-3-yl]methanesulfonamide]	1.2 nM	45.9 nM	> 120 min	11 min	0.75 nM	64 min	–
Cn1cc(-c2cc(NS(C)(=O)=O)ccc2OC2CCOCC2)c2cc[nH]c2c1=O [Example 29, N-[3-(6-methyl-7-oxo-6,7-dihydro-1H-pyrrolo[2,3-c]pyridin-4-yl)-4-(tetrahydro-2H-pyran-4-yloxy)phenyl]methanesulfonamide]	1.1 nM	71.8 nM	> 120 min	26 min	6.7 nM	> 120 min	–
Cn1cc(-c2cc(NS(C)(=O)=O)ccc2OC2CCOC2)c2cc[nH]c2c1=O (stereo not drawn) [Example 31, N-[3-(6-methyl-7-oxo-6,7-dihydro-1H-pyrrolo[2,3-c]pyridin-4-yl)-4-(tetrahydrofuran-3-yloxy)phenyl]methanesulfonamide]	1.8 nM	39.8 nM	19 min	> 120 min	13.4 nM	56 min	–
Cn1cc(-c2cc(NS(C)(=O)=O)ccc2Oc2ccc(C#N)cc2)c2cc[nH]c2c1=O [Example 33, N-[4-(4-cyanophenoxy)-3-(6-methyl-7-oxo-6,7-dihydro-1H-pyrrolo[2,3-c]pyridin-4-yl)phenyl]methanesulfonamide]	2.6 nM	41.7 nM	46 min	> 120 min	4.8 nM	> 120 min	–
CC(=O)Nc1ccc(Oc2ccc(F)cc2F)c(-c2cn(C)c(=O)c3[nH]ccc23)c1 [Example 37, N-[4-(2,4-difluorophenoxy)-3-(6-methyl-7-oxo-6,7-dihydro-1H-pyrrolo[2,3-c]pyridin-4-yl)phenyl]acetamide]	11.3 nM	59.3 nM	3 min	54 min	10.8 nM	88.9 min	–
Cn1cc(-c2cc(CN3CCCS3(=O)=O)ccc2Oc2ccccc2)c2cc[nH]c2c1=O [Example 41, 4-{5-[(1,1-dioxido-1,2-thiazolidin-2-yl)methyl]-2-phenoxyphenyl}-6-methyl-1,6-dihydro-7H-pyrrolo[2,3-c]pyridin-7-one]	2.8 nM	29.8 nM	10 min	–	0.51 nM	13.6 min	1 min
Cn1cc(-c2cc(CNC(=O)CCC(=O)O)ccc2Oc2ccccc2)c2cc[nH]c2c1=O [Example 42, 4-{[3-(6-methyl-7-oxo-6,7-dihydro-1H-pyrrolo[2,3-c]pyridin-4-yl)-4-phenoxybenzyl]amino}-4-oxobutanoic acid]	54.6 nM	> 3000 nM	> 120 min	> 120 min	93.4 nM	> 120 min	–
Cn1cc(-c2cc(N3CCCS3(=O)=O)ccc2Oc2ccc(F)cc2F)c2cc[nH]c2c1=O [Example 43, 4-[2-(2,4-difluorophenoxy)-5-(1,1-dioxido-1,2-thiazolidin-2-yl)phenyl]-6-methyl-1,6-dihydro-7H-pyrrolo[2,3-c]pyridin-7-one]	1.7 nM	16.9 nM	5 min	2 min	1.2 nM	34.9 min	–
Cn1cc(-c2cc(CCO)ccc2OCc2ccccc2)c2cc[nH]c2c1=O [Example 44, 4-[2-(benzyloxy)-5-(2-hydroxyethyl)phenyl]-6-methyl-1,6-dihydro-7H-pyrrolo[2,3-c]pyridin-7-one]	286 nM	828 nM	27 min	6 min	236 nM	33.7 min	–
CN(C)C(=O)Cc1ccc(OCc2ccccc2)c(-c2cn(C)c(=O)c3[nH]ccc23)c1 [Example 47, 2-[4-(benzyloxy)-3-(6-methyl-7-oxo-6,7-dihydro-1H-pyrrolo[2,3-c]pyridin-4-yl)phenyl]-N,N-dimethylacetamide]	235 nM	1100 nM	5 min	3 min	205 nM	8 min	–
